Data published in US12391660B2, “Heteroaromatic acetamide derivative, and preparation and use thereof” (Hangzhou Westan Pharmaceutical Technology Co., Ltd, priority 2019, dated 2025).

Test system: asthmatic rats
Assay: Ovalbumin-induced asthma rat model (HE staining, lung tissue inflammation area, airway inflammation score)
Format: in vivo, SD rats
From the text: 4. Effects of Compounds on Ovalbumin-Induced Asthma in Mouse and Rat Models
SPF-grade SD male rats (purchased from Zhejiang Academy of Medical Sciences, license number SCXK (Zhejiang) 2019-0002) with a body weight of 160-180 g; and SPF-grade female BABL/c mice (purchased from Zhejiang Weitong Lihua Experimental Animals Technology Co., Ltd., license number SCXK (Zhejiang) 2019-0001) with a body weight of 16-18 g were used. The above animals were raised by the Experimental Animal Center of Zhejiang Academy of Traditional Chinese Medicine.
Formulation of compound solution: compound was vortexed in a solvent system, dissolved by ultrasound, and prepared into a solution at a corresponding concentration, which was prepared just before use (the solvent system was composed of 5% Solutol HS 15, 5% DMSO and 90% physiological saline).
BABL/c mice or SD rats were randomly divided into: normal control group, model control group, dexamethasone group (0.72 mg/kg), and the respective test compound groups (one group for each dose), 10 mice in each group; 6 rats in each group.
Sensitization of rats: On Day 1 and Day 8, the model control group and the respective drug administration groups were intraperitoneally injected with 1 ml of 10% OVA sensitizing solution, and the normal group was intraperitoneally injected with an equal volume of normal saline.
Rat: from Day 15, the dexamethasone group and the respective test compound groups were intraperitoneally injected, 20 minutes before challenge, with the corresponding drugs with an injection volume of 0.3 ml/100 g; the model control group was intraperitoneally injected, 20 minutes before challenge, with an equal volume of solvent system; and the normal control group was not treated. Administration was conducted for 7 consecutive days. […]
The rat was anesthetized with 10% urethane at 1.3 ml/100 g volume, and the left lung tissue was taken and fixed in 4% neutral formaldehyde, paraffin-embedded according to routine operation, sectioned for HE staining. […] NIS-Elements D 3.2 software was used to manually integrate and measure the total area of lung tissue sections and the inflammation area under all fields of view, the total areas under each field of view were accumulated, and the percentage of the cumulative area of inflammation in the total area was calculated, wherein the percentage of inflammation area=cumulative area of inflammation/total area×100%.
All data were expressed as mean±standard deviation (x±s), and the data were processed by SPSS 20.0 statistical software. […]

[1] = intraperitoneal injection, vs model group, P<0.05, 0.01

SMILES: N#Cc1ccc(NC2(C(=O)N3CCN(c4ccc(C(F)(F)F)cc4)CC3)CCCC2)cc1 [Compound 1, 4-((1-(4-(4-(trifluoromethyl)phenyl)piperazine-1-carbonyl)cyclopentyl)amino)benzonitrile]
- lung tissue inflammation and inflammatory cell infiltration around the airway (HE x40) (compared with the model group): significant improvement
- airway inflammation score [1]: significantly decreased
- lung tissue inflammation area [1]: significantly decreased
